Counter-ions that a name gives are not always drawn.

We go through 63 molecules from BindingDB's records for doi:10.7270/Q2W957K6 (Pcmd, 2008).

For the experiment, the target named is Coagulation factor XI (Homo sapiens, UniProt P03951). Description: human FXIa inhibitor potency, dose response, biochemical (AID 679).
Sequence of Coagulation factor XI (P03951 19-387 limits assumed): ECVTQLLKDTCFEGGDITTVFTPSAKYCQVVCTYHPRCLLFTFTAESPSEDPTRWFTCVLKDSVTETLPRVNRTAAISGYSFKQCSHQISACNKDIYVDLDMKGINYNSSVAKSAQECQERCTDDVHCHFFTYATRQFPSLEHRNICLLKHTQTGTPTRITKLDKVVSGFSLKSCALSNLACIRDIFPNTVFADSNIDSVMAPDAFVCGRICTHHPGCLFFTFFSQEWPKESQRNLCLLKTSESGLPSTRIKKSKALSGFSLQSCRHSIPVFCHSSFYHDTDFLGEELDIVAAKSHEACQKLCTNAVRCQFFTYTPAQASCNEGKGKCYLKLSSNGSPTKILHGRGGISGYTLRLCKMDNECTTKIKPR
Sequence of Coagulation factor XI (P03951 388-625 limits assumed): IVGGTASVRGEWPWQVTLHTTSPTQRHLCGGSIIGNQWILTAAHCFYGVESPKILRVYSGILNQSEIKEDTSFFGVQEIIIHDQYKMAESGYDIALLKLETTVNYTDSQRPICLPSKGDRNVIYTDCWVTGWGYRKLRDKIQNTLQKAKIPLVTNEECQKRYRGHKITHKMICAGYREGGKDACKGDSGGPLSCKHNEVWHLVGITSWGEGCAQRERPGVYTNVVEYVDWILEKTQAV
The term IC50 denotes the concentration that gives 50% inhibition. `COC(=O)C(Cc1c[nH]c2ccccc12)NC(C)=O` (stereo not drawn) [SMR000121078] registered an IC50 of 6.69 µM.
As for `Cc1ccc(NS(=O)(=O)c2ccc(OCC(=O)N3CCOCC3)cc2)cc1` [N-(4-methylphenyl)-4-(2-morpholin-4-yl-2-oxidanylidene-ethoxy)benzenesulfonamide], the figure is more than 50 µM.
As for `CCC(CO)NCc1ccc(OC2CCCC2)cc1` (stereo not drawn) [2-[(4-cyclopentyloxyphenyl)methylamino]butan-1-ol;hydrochloride], the figure is more than 50 µM.
In the case of `C=CCn1c(=O)c2c(nc(Br)n2Cc2ccccc2Cl)n(C)c1=O` [MLS000555959], the IC50 was 0.638 µM.
Under `CCOc1cc(S(=O)(=O)N(Cc2ccccc2)Cc2ccccc2)c(OCC)cc1-n1cnnn1` [N,N-Dibenzyl-2,5-diethoxy-4-tetrazol-1-yl-benzenesulfonamide] stands more than 50 µM.
`O=C(NC(C(=O)c1ccccc1)n1c(=O)cc[nH]c1=S)c1ccccc1` (stereo not drawn) yielded an IC50 of more than 50 µM.
The molecule `COc1ccc(Cn2nnnc2C(c2ccccc2Cl)N2CCC(C(N)=O)CC2)cc1` (stereo not drawn) yielded an IC50 of more than 50 µM.
In turn, `CNCCCc1ccccc1` had an IC50 of more than 50 µM.
In turn, `CCc1ccc(CC2SC(=C(C#N)C(C)=O)NC2=O)cc1` (stereo not drawn) [(2E)-2-[5-[(4-ethylphenyl)methyl]-4-oxo-2-thiazolidinylidene]-3-oxobutanenitrile] showed an IC50 of more than 50 µM.
Under `COC(=O)c1sc(NC(=O)CC(C)C)c(C(=O)OC)c1C` [SMR000141040] stands more than 50 µM; under `CCOC(=O)c1cc2c(ccn2C)n1CC(=O)N1CCC(C)CC1` [ethyl 1-methyl-4-[2-(4-methylpiperidin-1-yl)-2-oxoethyl]pyrrolo[3,2-b]pyrrole-5-carboxylate], 0.744 µM; under `CCC1CC2CC(NC(C)=O)C1C2` (stereo not drawn) [N-(5-ethyl-3-bicyclo[2.2.1]heptanyl)ethanamide], 0.588 µM.
Under `O=C(c1cccc2ccccc12)n1nnc2ccccc21` [SMR000118701] stands more than 50 µM.
Under `CCN(CC)CCNC(=O)C(C)c1nn(C)c(=O)c2ccccc12` (stereo not drawn) stands more than 50 µM; under `CCn1nc(CC(=O)Nc2nnc(CC(=O)N3CCCC3)s2)c2ccccc2c1=O` [2-(3-ethyl-4-oxo-1-phthalazinyl)-N-[5-[2-oxo-2-(1-pyrrolidinyl)ethyl]-1,3,4-thiadiazol-2-yl]acetamide], more than 50 µM; under `O=C(CCCN1C(=O)c2ccccc2C1=O)NCC1CCCO1` (stereo not drawn) [4-[1,3-bis(oxidanylidene)isoindol-2-yl]-N-(oxolan-2-ylmethyl)butanamide], 14.6 µM.
With `COC(=O)c1ccc(NC(=O)Cc2c(O)n(-c3ccc(C)cc3)c(=O)n2CC(C)C)cc1` [methyl 4-[2-[1-(4-methylphenyl)-3-(2-methylpropyl)-2,5-bis(oxidanylidene)imidazolidin-4-yl]ethanoylamino]benzoate], the half-inhibitory concentration (IC50) is more than 50 µM.
As for `Cc1cnc(C(=O)OCC(=O)NCc2ccccc2)cn1` [[2-(benzylamino)-2-oxoethyl] 5-methylpyrazine-2-carboxylate], the figure is more than 50 µM.
As for `Cc1ccc(C(=O)n2nnc3ccccc32)cc1` [MLS000527467], the figure is 2.39 µM.
As for `CN(CCOc1ccccc1)c1ccc(S(=O)(=O)N2CCCCC2)cn1` [N-methyl-N-(2-phenoxyethyl)-5-piperidin-1-ylsulfonylpyridin-2-amine], the figure is more than 50 µM.
Regarding `N#Cc1ccc(NC(=O)COC(=O)CNC(=O)C2CCCCC2)cc1`, the IC50 was more than 50 µM.
As for `Cc1ccc(-c2csc(N3CCC(NS(=O)(=O)c4ccc5c(c4)OCCO5)CC3)n2)cc1` [N-[1-[4-(4-methylphenyl)-1,3-thiazol-2-yl]piperidin-4-yl]-2,3-dihydro-1,4-benzodioxine-6-sulfonamide], the figure is more than 50 µM.
Regarding `O=C(Oc1ccc2c(=O)c(Cl)coc2c1)c1cccnc1` [MLS000523505], the half-maximal inhibitory concentration (IC50) is more than 50 µM.
As for `CCC1(c2ccccc2)C(=O)N(C)C(=O)N(C)C1=O` [MLS000532164], the figure is more than 50 µM.
As for `CCOC(=O)c1c(C)nc2c(c1C)c(=O)oc1ccccc12` [ethyl 2,4-dimethyl-5-oxochromeno[4,3-b]pyridine-3-carboxylate], the figure is more than 50 µM; as for `O=S(=O)(Cc1ccccc1)N1CCC(c2nc(-c3cccs3)no2)CC1` [MLS000027341], more than 50 µM.
Molecule `COC(=O)c1[nH]c2ccc(Br)cc2c1NC(=O)CN1CCCc2ccccc21` [methyl 5-bromanyl-3-[2-(3,4-dihydro-2H-quinolin-1-yl)ethanoylamino]-1H-indole-2-carboxylate] yielded an IC50 of more than 50 µM.
Molecule `Cc1cc(=O)[nH]c(-n2[nH]c(C)cc2=O)n1` [6-methyl-2-(3-methyl-5-oxo-2,5-dihydro-1H-pyrazol-1-yl)-4(3H)-pyrimidinone] came in with an IC50 of more than 50 µM.
As for `Cc1c(O)ccc(C(=O)CN2C(=O)c3ccccc3C2=O)c1O` [MLS000050535], the figure is more than 50 µM.
As for `COc1cc(OC)cc(-c2nnc(SCc3cccc(C(=O)O)c3)o2)c1` [3-[[5-(3,5-dimethoxyphenyl)-1,3,4-oxadiazol-2-yl]sulfanylmethyl]benzoic acid], the figure is more than 50 µM; as for `CC1=C(C(=O)OC(C)C)C(c2coc3ccccc3c2=O)C2C(=O)CCCC2=N1` (stereo not drawn) [MLS000533594], more than 50 µM.
Turning to `Cn1nnnc1SCC(=O)N(C1CCCCC1)C1CCCCC1` [N,N-dicyclohexyl-2-[(1-methyl-5-tetrazolyl)thio]acetamide], the IC50 was more than 50 µM.
As for `CNC(=O)COC(=O)c1[nH]c(C)c(C(C)=O)c1C` [SMR000152883], the figure is more than 50 µM.
As for `CCCc1nc2ccccc2c(=O)n1-c1ccc(OC)cc1` [3-(4-Methoxy-phenyl)-2-propyl-3H-quinazolin-4-one], the figure is more than 50 µM; as for `CCc1c(O)nc(SCC(=O)NC(C)(C)C)n(-c2ccccc2)c1=O` [SMR000147407], more than 50 µM.
Consider `O=S(=O)(Nc1cccc2nsnc12)c1ccccc1`, for which the IC50 came out at 9.3 µM.
Under `COC(=O)CSc1nnc(C)n1-c1cccc(OC)c1` [[4-(3-Methoxy-phenyl)-5-methyl-4H-[1,2,4]triazol-3-ylsulfanyl]-acetic acid methyl ester] stands 2.36 µM; under `CCCC1CCc2c(sc(N)c2C(N)=O)C1` (stereo not drawn), more than 50 µM; under `COc1ccc(CC(=O)NCc2ccc3c(c2)OCO3)cc1`, more than 50 µM.
`Cc1ccc(NC(=O)CCn2cccc2)cc1` showed an IC50 of more than 50 µM.
As for `COc1ccccc1-n1cnnc1SCC(=O)Nc1nc(C)c(Cl)cc1Cl` [SMR000153344], the figure is 10.2 µM; as for `O=c1cccc2n1CC1CC2CN(S(=O)(=O)c2ccccc2)C1` (stereo not drawn) [3-Benzenesulfonyl-1,2,3,4,5,6-hexahydro-1,5-methano-pyrido[1,2-a][1,5]diazocin-8-one], more than 50 µM.
Under `Cc1cccc(NC(=O)c2snc3c(=O)[nH]cnc23)c1` [SMR000000702] stands more than 50 µM.
As for `CCc1ccc(NC(=O)Cn2nc(C(F)(F)F)c3c2CCC3)cc1` [N-(4-Ethyl-phenyl)-2-(3-trifluoromethyl-5,6-dihydro-4H-cyclopentapyrazol-1-yl)-acetamide], the IC50 was more than 50 µM.
As for `CCOc1ccc(S(=O)(=O)NCc2ccc(OC)cc2)c2cccnc12` [MLS000521584], the figure is more than 50 µM.
Under `O=C(Nc1ccccc1C(=O)N1CCOCC1)c1ccc(F)cc1` [4-fluoro-N-[2-[4-morpholinyl(oxo)methyl]phenyl]benzamide] stands 21.4 µM; under `Cc1cc(NC(=O)COC(=O)c2c(C)nn(Cc3ccccc3)c2C)no1` [[2-[(5-methyl-1,2-oxazol-3-yl)amino]-2-oxoethyl] 1-benzyl-3,5-dimethylpyrazole-4-carboxylate], more than 50 µM.
As for `Cc1c(NC(=O)c2cc3ccccc3o2)c(=O)n(-c2ccccc2)n1C` [MLS000556522], the figure is more than 50 µM; as for `CCOC(=O)c1c(C)n(Cc2ccccc2)c2ccc(OCC(O)Cn3nc(C)cc3C)cc12` (stereo not drawn) [MLS000121399], more than 50 µM.
On to `O=C(CCSc1nnc2ccc3ccccc3n12)Nc1ccc(F)cc1`, for which the IC50 was more than 50 µM.
The molecule `CCCC(=O)n1nc(-c2ccccc2)nc1SC` [SMR000113998] yielded an IC50 of more than 50 µM.
As for `Cc1ccccc1C(=O)N=c1sccn1C` [2-methyl-N-(3-methyl-1,3-thiazol-2-ylidene)benzamide], the figure is more than 50 µM; as for `CCOc1cccc2cc(C(N)=O)/c(=N/Cc3ccccc3)oc12` [8-ethoxy-2-(phenylmethyl)imino-chromene-3-carboxamide], more than 50 µM.
Under `CCCN(CCC)C(C(=O)Nc1cccc(OC)c1)c1ccccc1` (stereo not drawn) [SMR000064514] stands more than 50 µM.
Under `COc1ccc2c(=O)cc(-c3ccccc3)n(C)c2c1` [7-methoxy-1-methyl-2-phenyl-4-quinolinone] stands more than 50 µM.
`O=C(c1cn(-c2ccccc2)nc1-c1ccncc1)n1nnc2ccccc21` [1-{[1-phenyl-3-(4-pyridinyl)-1H-pyrazol-4-yl]carbonyl}-1H-1,2,3-benzotriazole] showed an IC50 of 0.707 µM.
In turn, `Cc1ccc(C(=O)n2nc(-c3cccnc3)nc2N)cc1` [1-(4-methylbenzoyl)-3-(3-pyridinyl)-1H-1,2,4-triazol-5-amine] returned an IC50 of more than 50 µM.
Under `O=C(NCc1ccccc1)C1CCCN(S(=O)(=O)c2cccc3nonc23)C1` (stereo not drawn) [1-(2,1,3-benzoxadiazol-4-ylsulfonyl)-N-benzylpiperidine-3-carboxamide] stands more than 50 µM; under `CCn1c(SCC(=O)c2[nH]c(C)c(C(C)=O)c2C)nnc1-c1ccccc1` [SMR000153346], 7.44 µM; under `O=c1c(-c2cc3ccccc3o2)[n+]([O-])c2ccccc2n1OCc1ccccn1` [3-(1-benzofuran-2-yl)-1-(2-pyridinylmethoxy)-2(1H)-quinoxalinone 4-oxide], more than 50 µM.
Under `COc1cccc(C(=O)N(Cc2ccccc2)Cc2cc3cc4c(cc3nc2O)OCCO4)c1` [MLS000123157] stands 10.4 µM; under `COc1ccc(OCC(=O)Nc2cc(-c3nn(C)c(=O)c4ccccc34)ccc2OC)cc1` [N-[2-Methoxy-5-(3-methyl-4-oxo-3,4-dihydro-phthalazin-1-yl)-phenyl]-2-(4-methoxy-phenoxy)-acetamide], more than 50 µM.
Under `COc1ccc(S(=O)(=O)N2CCC(C(=O)N3CCc4ccccc4C3)CC2)cc1Cl` stands 6.26 µM.
